Results taken from US20170340689A1, “TITRATED EXTRACTS OF CYNARA SCOLYMUS FOR USE IN THE TREATMENT OF MESOTHELIOMA” (ABOCA S.P.A SOCIETÀ AGRICOLA, priority 2014, published 2017).

Test system: untransformed HMC cells
Experiment: ATPlite cell vitality assay in co-treatment with pemetrexed, untransformed cells
Format: cell-based, human
Conditions: extract at non-cytotoxic dose 6 μg/ml
From the text: 4.1 Association of Extract of Cynara Spp. and Pemetrexed with ATPlite™ Assay

Nc1nc2[nH]cc(CCc3ccc(C(=O)N[C@@H](CCC(=O)O)C(=O)O)cc3)c2c(=O)[nH]1 [PMTX, pemetrexed]
cell vitality of untransformed HMC cells, pemetrexed alone or with extract: highly toxic for the non-tumour cells
